Data as given in US20240190855A1 (Relay Therapeutics, Inc., priority 2021, published 2024).

What follows are compounds tested against T1, CDK2/Cyclin E complex (Homo sapiens, UniProt P24941) (assay: CDK2/Cyclin E fluorescence-based microfluidic mobility shift assay (CDK2 Biochemical Caliper Assay)). Conditions: read-out: Biochemical CDK2/CyclinE Caliper IC50.
T1 construct: purchased Eurofins 14-475
How it was run: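 Wild-type CDK2/Cyclin E was preincubated with compound and ATP for 30 min at RT before the 5-FAM-QSPKKG peptide was added. Final concentrations were 0.1 nM enzyme, 2000 uM ATP, 1.5 uM peptide and 1% DMSO. After 20 hr at RT and EDTA stop, substrate conversion was read by microfluidic mobility shift over an 11-point, 3-fold dilution series.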

Compared with `COCc1cc(C(=O)Nc2cc([C@H]3CC[C@@H](Oc4cn[nH]c4C(C)C)C3)[nH]n2)n(C)n1` [Example 629], `COCc1cc(C(=O)Nc2cc([C@H]3C[C@@H](COc4cn[nH]c4C4(C)CC4)C3)[nH]n2)n(C)n1` [Example 645] is higher in IC50: 100 to 250 nM for the first, 250 to 1000 nM for the second.

`COCc1cc2c(Nc3cc([C@H]4C[C@@H](COc5cn[nH]c5C(C)(C)C)C4)[nH]n3)nccn2n1` [Example 630] and `COCc1cc2c(Nc3cc([C@H]4C[C@@H](COc5nncn5C(C)(C)C)C4)[nH]n3)nccn2n1` [Example 636] cannot be ordered by IC50: no more than 100 nM for the first, no more than 100 nM for the second.

`COCc1cc(C(=O)Nc2cc([C@H]3C[C@@H](COc4cnn(C)c4C(C)C)C3)[nH]n2)n(C)n1` [Example 631] and `COCc1cc(C(=O)Nc2cc([C@H]3C[C@@H](COc4cn(C)nc4C(C)(C)C)C3)[nH]n2)n(C)n1` [Example 642] fall in the same range of IC50: 100 to 250 nM for the first, 100 to 250 nM for the second.

`COCc1cc(C(=O)Nc2cc([C@H]3C[C@@H](COc4nncn4C(C)(C)C)C3)[nH]n2)n(C)n1` [Example 632] and `COCc1cc(C(=O)Nc2cc([C@H]3C[C@@H](COc4nncn4C(C)C)C3)[nH]n2)n(C)n1` [Example 633] cannot be ordered by IC50: no more than 100 nM for the first, no more than 100 nM for the second.

`CC(C)NC(=O)O[C@@H]1CO[C@H](c2cc(NC(=O)c3cc(CN4CCCC4)nn3C)n[nH]2)C1` [Example 634] and `CC(C)NC(=O)O[C@H]1CO[C@@H](c2cc(Nc3nccn4nc(CN5CCCC5)cc34)n[nH]2)C1` [Example 676] cannot be ordered by IC50: 100 to 250 nM for the first, no more than 100 nM for the second.

`CC(C)n1cnnc1OC[C@H]1C[C@@H](c2cc(Nc3nccn4nccc34)n[nH]2)C1` [Example 635] and `CC(C)(C)n1cnnc1OC[C@H]1C[C@@H](c2cc(Nc3nccn4nccc34)n[nH]2)C1` [Example 637] cannot be ordered by IC50: no more than 100 nM for the first, no more than 100 nM for the second.

`COCc1cc2c(Nc3cc([C@H]4C[C@@H](OC(=O)N[C@H](C)CC(F)(F)F)CO4)[nH]n3)nccn2n1` [Example 638] and `COCc1cc2c(Nc3cc([C@H]4C[C@@H](OC(=O)N[C@@H](C)CC(F)(F)F)CO4)[nH]n3)nccn2n1` [Example 639] cannot be ordered by IC50: no more than 100 nM for the first, no more than 100 nM for the second.

`COCc1cc2c(Nc3cc([C@H]4C[C@@H](OC(=O)NC5(C(F)(F)F)CC5)CO4)[nH]n3)nccn2n1` [Example 640] and `COCc1cc2c(Nc3cc([C@H]4C[C@@H](OC(=O)NC5(CC(F)(F)F)CC5)CO4)[nH]n3)nccn2n1` [Example 643] cannot be ordered by IC50: no more than 100 nM for the first, no more than 100 nM for the second.

`COCc1cc2c(Nc3cc([C@H]4C[C@@H](OC(=O)NC(C)(C)C(F)(F)F)CO4)[nH]n3)nccn2n1` [Example 641] and `COCc1cc2c(Nc3cc([C@H]4C[C@@H](OC(=O)NC(C)(C)C(F)F)CO4)[nH]n3)nccn2n1` [Example 647] cannot be ordered by IC50: no more than 100 nM for the first, no more than 100 nM for the second.

`COCc1cc2c(Nc3cc([C@H]4C[C@@H](OC(=O)NC5(C(F)F)CC5)CO4)[nH]n3)nccn2n1` [Example 644] and `COCc1cc2c(Nc3cc([C@H]4C[C@@H](OC(=O)NC5(C)CCC5)CO4)[nH]n3)nccn2n1` [Example 674] cannot be ordered by IC50: no more than 100 nM for the first, no more than 100 nM for the second.

`CC(C)NC(=O)OC[C@H]1C[C@@H](c2cc(NC(=O)c3cc(COC(F)(F)F)nn3C)n[nH]2)C1` [Example 646] and `CC(C)NC(=O)OC[C@H]1C[C@@H](c2cc(NC(=O)c3cc(COC(F)F)nn3C)n[nH]2)C1` [Example 650] cannot be ordered by IC50: no more than 100 nM for the first, no more than 100 nM for the second.

`CC(C)NC(=O)O[C@@H]1CO[C@H](c2cc(Nc3nccc4nccn34)n[nH]2)C1` [Example 648] and `CC(C)NC(=O)O[C@H]1CO[C@@H](c2cc(Nc3nccc4nccn34)n[nH]2)C1` [Example 649] cannot be ordered by IC50: no more than 100 nM for the first, no more than 100 nM for the second.

`COCc1cc2c(Nc3cc([C@H]4C[C@@H](OC(=O)NC56CC(C5)C6)CO4)[nH]n3)nccn2n1` [Example 651] and `COCc1cc2c(Nc3cc([C@H]4C[C@@H](OC(=O)NC5CCC5)CO4)[nH]n3)nccn2n1` [Example 666] cannot be ordered by IC50: no more than 100 nM for the first, no more than 100 nM for the second.

`CC(C)NC(=O)OC[C@H]1C[C@@H](c2cc(NC(=O)c3cc(COC(C)C)nn3C)n[nH]2)C1` [Example 652] and `COCc1cc(C(=O)Nc2ncc([C@H]3C[C@@H](COC(=O)NC(C)C)C3)s2)n(C)n1` [Example 670] cannot be ordered by IC50: no more than 100 nM for the first, no more than 100 nM for the second.

`CCOCc1cc2c(Nc3cc([C@H]4C[C@@H](OC(=O)NC(C)C)CO4)[nH]n3)nccn2n1` [Example 653] and `CC(C)NC(=O)O[C@H]1CO[C@@H](c2cc(Nc3nccn4nc(COC(C)C)cc34)n[nH]2)C1` [Example 658] cannot be ordered by IC50: no more than 100 nM for the first, no more than 100 nM for the second.

`CC[C@@H](C)NC(=O)O[C@H]1CO[C@@H](c2cc(Nc3nccn4nc(COC)cc34)n[nH]2)C1` [Example 654] and `CC[C@H](C)NC(=O)O[C@H]1CO[C@@H](c2cc(Nc3nccn4nc(COC)cc34)n[nH]2)C1` [Example 675] cannot be ordered by IC50: no more than 100 nM for the first, no more than 100 nM for the second.

`COCc1cc2c(Nc3cc([C@H]4C[C@@H](OC(=O)N[C@H](C)C5CC5)CO4)[nH]n3)nccn2n1` [Example 655] and `COCc1cc2c(Nc3cc([C@H]4C[C@@H](OC(=O)N[C@@H](C)C5CC5)CO4)[nH]n3)nccn2n1` [Example 656] cannot be ordered by IC50: no more than 100 nM for the first, no more than 100 nM for the second.

`CC(C)NC(=O)O[C@@H]1CC[C@H](c2cc(NC(=O)c3cc(CN4CCC(F)(F)C4)nn3C)n[nH]2)C1` [Example 657] and `CC(C)NC(=O)O[C@@H]1CC[C@H](c2cc(NC(=O)c3cc(CN4CC(F)(F)C4)nn3C)n[nH]2)C1` [Example 672] cannot be ordered by IC50: no more than 100 nM for the first, no more than 100 nM for the second.

First: COCc1cc2c(Nc3cc([C@H]4C[C@@H](OC(N)=O)CO4)[nH]n3)nccn2n1 [Example 659]
Second: COCc1cc2c(Nc3cc([C@H]4C[C@@H](OC(=O)N[C@@H](C)C(C)C)CO4)[nH]n3)nccn2n1 [Example 665]
The IC50 of the first is higher: 1000 to 100000 nM for the first, no more than 100 nM for the second.

`C#CC1CN(C(=O)O[C@@H]2CC[C@H](c3cc(NC(=O)Cc4cc(C)no4)n[nH]3)C2)C1` [Example 660] and `Cc1cc(CC(=O)Nc2cc([C@H]3CC[C@@H](OC(=O)N4CC5CC(C5)C4)C3)[nH]n2)on1` [Example 663] cannot be ordered by IC50: 100 to 250 nM for the first, no more than 100 nM for the second.

`Cc1cc(CC(=O)Nc2cc([C@H]3CC[C@@H](OC(=O)N4CC5C(C4)C5(C)C)C3)[nH]n2)on1` (some centres unmarked) [Example 661] and `Cc1cc(CC(=O)Nc2cc([C@H]3CC[C@@H](OC(=O)N4C[C@@H]5[C@@H](CF)[C@@H]5C4)C3)[nH]n2)on1` [Example 662] cannot be ordered by IC50: no more than 100 nM for the first, no more than 100 nM for the second.

`Cc1cc(CC(=O)Nc2cc([C@H]3CC[C@@H](OC(=O)N4CC5CC(F)(C5)C4)C3)[nH]n2)on1` [Example 664] and `COCc1cc2c(Nc3cc([C@H]4C[C@@H](OC(=O)N[C@H]5CC5(C)C)CO4)[nH]n3)nccn2n1` [Example 677] cannot be ordered by IC50: 100 to 250 nM for the first, no more than 100 nM for the second.

`CC(C)NC(=O)O[C@H]1CO[C@@H](c2cc(Nc3nccn4nc(COC(F)F)cc34)n[nH]2)C1` [Example 667] and `CC(C)NC(=O)O[C@H]1CO[C@@H](c2cc(Nc3nccn4nc(CN5CCC5)cc34)n[nH]2)C1` [Example 673] cannot be ordered by IC50: no more than 100 nM for the first, no more than 100 nM for the second.

`COCc1cc2c(Nc3cc([C@H]4C[C@@H](OC(=O)NC5(COC)CC5)CO4)[nH]n3)nccn2n1` [Example 668] and `COCc1cc2c(Nc3cc([C@H]4C[C@@H](OC(=O)NC5(c6cnn(C)c6)CC5)CO4)[nH]n3)nccn2n1` [Example 678] cannot be ordered by IC50: no more than 100 nM for the first, 100 to 250 nM for the second.

`CC(C)NC(=O)O[C@H]1CO[C@@H](c2cc(Nc3nccn4nc(CN5CCOCC5)cc34)n[nH]2)C1` [Example 669] and `COCc1cc2c(Nc3cc([C@H]4C[C@@H](Oc5nncn5C(C)C)CO4)[nH]n3)nccn2n1` [Example 671] cannot be ordered by IC50: no more than 100 nM for the first, 100 to 250 nM for the second.
